Article PMC10384862, “[^212Pb]Pb-eSOMA-01: A Promising Radioligand for Targeted Alpha Therapy of Neuroendocrine Tumors” (Pharmaceuticals, 2023)
Where two headings read alike, the source gives them in different places.

What was measured:
[1] = In vitro stability in PBS; format: physicochemical; details: 37 °C, n = 1
Description: The ^203Pb-labeled compounds (~ 2 MBq) or the ^212Pb-labeled compounds (~ 70 kBq) were incubated in 300 µL of phosphate buffered saline (PBS; 0.1 M, pH 7.4) or mouse serum at 37 °C. The stability of the radiolabeled peptides was monitored at 1, 4, and 24 h post-incubation. The samples in PBS were directly analyzed by radio-HPLC without any pretreatment. However, samples of mouse serum were mixed with an equal volume of acetonitrile to precipitate the proteins. The solution was centrifuged twice for 5 min at 13,000 rpm, and the supernatant was analyzed by radio-HPLC using Method 1 for lead-203 and Method 2 for lead-212.

[2] = LogD7.4 by shake-flask method (n-octanol/PBS); format: physicochemical; details: ^203Pb-labeled compound; n-octanol/PBS pH 7.4; n = 3
Description: Distribution coefficients (LogD7.4) were determined by the shake-flask method. A sample containing the ^203Pb-labeled compound (~1 MBq) was added to a vial containing PBS (600 µL, pH 7.4) and n-octanol (600 µL). The vial was vortexed vigorously and then centrifuged at 10,000 rpm for 10 min for phase separation. Samples (100 µL) of the n-octanol and aqueous phases were taken and measured by a gamma counter. The LogD7.4 value was calculated by using the equation: LogD7.4 = log [(counts in the n-octanol phase)/(counts in the aqueous phase)]. Measurements were performed in triplicate.

[3] = Biodistribution study with lead-212; format: in vivo, mouse; details: mouse, intravenous; for tissue uptake at 1 h: 1 h p.i.; for tissue uptake at 4 h: 4 h p.i.
Description: (§1) Six-week-old male Balb/c nu/nu-specific and opportunistic pathogen-tree (SOPF) mice (Janvier Labs, Le Genest-Saint-Isle, France) were housed in individually ventilated cages, with four mice per cage. Upon arrival, the mice were acclimated for 1 week with access to food and water ad libitum. Mice were subcutaneously inoculated on the right shoulder with NCI-H69 cells (5 × 10^6 cells suspended in 100 μL of 1/3 Matrigel (Corning Inc.; Corning, NY, USA) and 2/3 Hank’s balanced salt solution (Gibco; Paisley, UK). NCI-H69 xenografts were allowed to grow for 3 weeks. Tumor sizes were 391 ± 173 mm^3 at the start of the studies.
(§2) Biodistribution studies were performed to determine tumor and organ uptake of [^212Pb]Pb-DOTAM-TATE, [^212Pb]Pb-eSOMA-01, and [^212Pb]Pb-eSOMA-02. Animals (n = 4 for each time point) were injected intravenously (i.v.) with an average of 100 kBq/0.5 nmol. At 3 selected time points (1, 4, and 24 h) p.i., blood was collected via retro-orbital puncture under isoflurane/O2 anesthesia, after which the mice were sacrificed via cervical dislocation. The tumor and organs of interest (heart, lungs, liver, spleen, stomach, large intestine, small intestine, pancreas, kidneys, muscle, skin, and bone) were excised, washed in PBS, and blotted dry. To confirm receptor specificity of radioligand uptake, mice (n = 3) were co-injected with an excess (25 nmol) of the respective unlabeled peptide, and uptake in the organs of interest was determined at 24 h p.i. To determine the total injected radioactivity per animal, a calibration curve with lead-212 was established using the gamma counter. The percentage of injected dose per gram (% ID/g) was determined for each tissue sample and corrected for both the injected volume and the % ID present at the injection site (the tail).

[4] = test system: H69-xenograft Balb/c nu/nu mice; test: Biodistribution study with lead-212; format: in vivo, mouse; details: 1 h p.i.; n = 4
Description: as §1, §2

[5] = blood, 100 kBq, n = 4, read-out: Blood uptake
[6] = intestines, 100 kBq, n = 4, read-out: Intestines uptake
[7] = kidneys, 100 kBq, n = 4, read-out: Kidneys uptake
[8] = liver, 100 kBq, n = 4, read-out: Liver uptake
[9] = lungs, 100 kBq, n = 4, read-out: Lungs uptake
[10] = pancreas, 100 kBq, n = 4, read-out: Pancreas uptake
[11] = spleen, 100 kBq, n = 4, read-out: Spleen uptake
[12] = stomach, 100 kBq, n = 4, read-out: Stomach uptake
[13] = tumor, 100 kBq, n = 4, read-out: Tumor uptake

C[C@@H](O)[C@H](NC(=O)[C@@H]1CSSC[C@H](NC(=O)[C@@H](Cc2ccccc2)NC(=S)Nc2ccc(CC3CN(CC(N)=O)CCN(CC(N)=O)CCN(CC(N)=O)CCN3CC(N)=O)cc2)C(=O)N[C@@H](Cc2ccc(O)cc2)C(=O)N[C@H](Cc2c[nH]c3ccccc23)C(=O)N[C@@H](CCCCN)C(=O)N[C@@H]([C@@H](C)O)C(=O)N1)C(=O)O (stereo partly drawn) [[^203Pb]Pb-eSOMA-03, metal not drawn]
Stability in PBS, intact labeled ligand ([1]; ^203Pb-labeled, 1 h): 70% | Stability in PBS, intact labeled ligand ([1]; ^203Pb-labeled, 4 h): 40% | Stability in PBS, intact labeled ligand ([1]; ^203Pb-labeled, 24 h): 15% | remaining at 1 h ([1]; phosphate buffered saline, pH 7.4, ^203Pb-labeled, 1 h, read-out: Stability in PBS, intact labeled ligand): 70% | remaining at 24 h ([1]; phosphate buffered saline, pH 7.4, ^203Pb-labeled, 24 h, read-out: Stability in PBS, intact labeled ligand): 15% | logD [2]: -1.36 ± 0.06

C[C@@H](O)[C@H](NC(=O)[C@@H]1CSSC[C@H](NC(=O)[C@@H](Cc2ccccc2)NC(=O)CN2CCC(NC(=O)CN3CCN(CC(N)=O)CCN(CC(N)=O)CCN(CC(N)=O)CC3)CC2)C(=O)N[C@@H](Cc2ccc(O)cc2)C(=O)N[C@H](Cc2c[nH]c3ccccc23)C(=O)N[C@@H](CCCCN)C(=O)N[C@@H]([C@@H](C)O)C(=O)N1)C(=O)O [[^212Pb]Pb-eSOMA-02, metal not drawn]
tissue uptake at 1 h [3, 5]: 1.44 ± 0.24 %ID/g | tissue uptake at 4 h [3, 5]: 0.01 ± 0.02 %ID/g | tissue uptake at 4 h ([3]; bone, 100 kBq, n = 4, read-out: Bones uptake): 0.03 ± 0.05 %ID/g | tissue uptake at 1 h ([3]; heart, 100 kBq, n = 4, read-out: Heart uptake): 0.54 ± 0.21 %ID/g | tissue uptake at 1 h [3, 6]: 2.24 ± 1.05 %ID/g | tissue uptake at 4 h [3, 6]: 0.67 ± 0.21 %ID/g | tissue uptake at 24 h ([3]; intestines, 100 kBq, 24 h p.i., n = 4, read-out: Intestines uptake): 0.13 ± 0.09 %ID/g | tissue uptake at 24 h ([3]; intestines, 24 h block: co-injection of excess (25 nmol) unlabeled peptide, read-out: Intestines uptake): 0.03 ± 0.03 %ID/g | tissue uptake at 1 h [3, 7]: 81.1 ± 14.3 %ID/g | tissue uptake at 4 h [3, 7]: 50.5 ± 3.24 %ID/g | tissue uptake at 24 h ([3]; kidneys, 100 kBq, 24 h p.i., n = 4, read-out: Kidneys uptake): 28.2 ± 9.41 %ID/g | tissue uptake at 24 h ([3]; kidneys, 24 h block: co-injection of excess (25 nmol) unlabeled peptide, read-out: Kidneys uptake): 37.9 ± 9.17 %ID/g | tissue uptake at 1 h [3, 8]: 3.96 ± 0.37 %ID/g | tissue uptake at 4 h [3, 8]: 3.09 ± 0.7 %ID/g | tissue uptake at 24 h ([3]; liver, 100 kBq, 24 h p.i., n = 4, read-out: Liver uptake): 1.44 ± 0.94 %ID/g | tissue uptake at 24 h ([3]; liver, 24 h block: co-injection of excess (25 nmol) unlabeled peptide, read-out: Liver uptake): 0.83 ± 0.87 %ID/g | tissue uptake at 1 h [3, 9]: 3.49 ± 0.7 %ID/g | tissue uptake at 4 h [3, 9]: 0.99 ± 0.24 %ID/g | tissue uptake at 24 h ([3]; lungs, 100 kBq, 24 h p.i., n = 4, read-out: Lungs uptake): 0.2 ± 0.21 %ID/g | tissue uptake at 1 h [3, 10]: 6.41 ± 0.7 %ID/g | tissue uptake at 4 h [3, 10]: 1.25 ± 0.27 %ID/g | tissue uptake at 24 h ([3]; pancreas, 100 kBq, 24 h p.i., n = 4, read-out: Pancreas uptake): 0.41 ± 0.37 %ID/g | tissue uptake at 4 h ([3]; skin, 100 kBq, n = 4, read-out: Skin uptake): 0.25 ± 0.33 %ID/g | tissue uptake at 1 h [3, 11]: 0.59 ± 0.06 %ID/g | tissue uptake at 4 h [3, 11]: 0.39 ± 0.27 %ID/g | tissue uptake at 1 h [3, 12]: 3.74 ± 0.66 %ID/g | tissue uptake at 4 h [3, 12]: 1.17 ± 0.35 %ID/g | tissue uptake at 24 h ([3]; stomach, 100 kBq, 24 h p.i., n = 4, read-out: Stomach uptake): 0.36 ± 0.27 %ID/g | tissue uptake at 24 h ([3]; stomach, 24 h block: co-injection of excess (25 nmol) unlabeled peptide, read-out: Stomach uptake): 0.14 ± 0.28 %ID/g | tissue uptake at 1 h [3, 13]: 7.93 ± 2.14 %ID/g | tissue uptake at 4 h [3, 13]: 7.45 ± 0.29 %ID/g | tissue uptake at 24 h ([3]; tumor, 100 kBq, 24 h p.i., n = 4, read-out: Tumor uptake): 1.02 ± 0.09 %ID/g | Stomach uptake [4]: 3.7 % ID/g | Stability in PBS, intact labeled ligand ([1]; ^212Pb-labeled, 1 h): 97% | Stability in PBS, intact labeled ligand ([1]; ^212Pb-labeled, 4 h): 95% | Stability in PBS, intact labeled ligand ([1]; ^212Pb-labeled, 24 h): 95%
